From patent US5464617A, “β-lactam compounds” (Hoffmann-La Roche Inc., priority 1994, dated 1995)
≈ marks a conversion by molar mass, not a printed value. Where a name gives a salt, the structure may show the parent alone.

What was measured:
[1] = system: Citrobacter freundii 1982; experiment: MIC in vitro of a 1:4 combination of ceftriaxone with a compound of formula I (Test D); assay type: cell-based; details: 1:4 combination of ceftriaxone with the compound; for MIC C. freundii 1982 (D): Table 4, test D; for MIC C. freundii 1982: Table 2
Method: The minimum inhibitory concentration in vitro ([…]) of a 1:4 combination of ceftriaxone with a compound of formula I against Citrobacter freundii 1982 was measured and compiled in Table 2 hereinafter.

[2] = system: E. coli 1346; experiment: Antibacterial activity of the products per se, serial dilution method in liquid medium (Test E); assay type: cell-based; details: product per se; for MIC E. coli 1346 (E): Table 4, test E; for MIC E. coli 1346: Table 3, liquid medium
Description: The antibacterial activity of the products per se is illustrated on the basis of Table 3 hereinafter, the minimum inhibitory concentration […] in vitro against E. coli 1346 being determined using the serial dilution method in liquid medium: […]

MIC C. freundii 1982 (D) [1]	MIC E. coli 1346 (E) [2]	MIC C. freundii 1982 [1]	Compound	also measured
0.5 µg/mL	≤ 0.25 µg/mL	–	O=C(O)C1=C(CSc2nc[nH]n2)C[C@@H]2CN(C(=O)C(F)(F)F)[C@@H]3C(=O)N1[C@H]23 [76(b), (1aS,3aR,6bR)-1-Oxo-5-(1H-1,2,4-triazol-3-ylsulphanylmethyl)-2-trifluoroacetyl-1a,2,3,3a,4,6b-hexahydro-1H-2,6a-diazacyclobut[cd]indene-6-carboxylic acid sodium salt]	–
0.5 µg/mL	> 32 µg/mL	–	CC(=O)NCC1=C(C(=O)O)N2C(=O)[C@@H]3[C@H]2[C@H](C1)CN3C(=O)Nc1ccc(O)cc1 [Example 85, (1aS,3aR,6bR)-5-Acetylaminomethyl-2-(4-hydroxy-phenylcarbamoyl)-1-oxo-1a,2,3,3a,4,6b-hexahydro-1H-2,6a-diazacyclobut[cd]indene-6-carboxylic acid sodium salt]	–
1 µg/mL	2 µg/mL	–	CNC(=O)Cn1nnnc1SCC1=C(C(=O)O)N2C(=O)[C@@H]3[C@H]2[C@H](C1)CN3C(C)=O [74(a), (1aS,3aR,6bR)-2-Acetyl-5-(1-methylcarbamoylmethyl-1H-tetrazol-5-ylsulphanylmethyl)-1-oxo-1a,2,3,3a,4,6b-hexahydro-1H-2,6a-diazacyclobut[cd]indene-6-carboxylic acid sodium salt]	–
1 µg/mL	8 µg/mL	–	NC(=O)CN1C[C@H]2CC(COC(N)=O)=C(C(=O)O)N3C(=O)[C@@H]1[C@@H]23 [59(d), (1aS,3aR,6bR)-2-Carbamoylmethyl-5-carbamoyloxymethyl-1-oxo-1a,2,3,3a,4,6b-hexahydro-1H-2,6a-diazacyclobut[cd]indene-6-carboxylic acid sodium salt]	–
32 µg/mL	> 32 µg/mL	–	O=C(O)C1=C(Sc2ccncc2)C[C@@H]2CN(C(=O)C(F)(F)F)[C@@H]3C(=O)N1[C@H]23 [3(ai), (1aS,3aR,6bR)-1-Oxo-5-(pyridin-4-ylsulphanyl)-2-trifluoracetyl-1a,2,3,3a,4,6b-hexahydro-1H-2,6a-diazacyclobut[cd]indene-6-carboxylic acid sodium salt]	–
1 µg/mL	32 µg/mL	–	NC(=O)OCC1=C(C(=O)O)N2C(=O)[C@@H]3[C@H]2[C@H](C1)CN3C(=O)CNc1ccccc1 [58(h), (1aS,3aR,6bR)-5-Carbamoyloxymethyl-1-oxo-2-phenylaminoacetyl-1a,2,3,3a,4,6b-hexahydro-1 H-2,6a-diazacyclobut[cd]indene-6-carboxylic acid sodium salt]	–
0.5 µg/mL	2 µg/mL	–	Cn1nnnc1SCC1=C(C(=O)O)N2C(=O)[C@@H]3[C@H]2[C@H](C1)CN3C(=O)C(F)(F)F [Example 19(c), (1aS,3aR,6bR)-5-(1-Methyl-1H-tetrazol-5-ylsulphanylmethyl)-1-oxo-2-trifluoracetyl-1a,2,3,3a,4,6b-hexahydro-1H-2,6a-diazacyclobut[cd]indene-6-carboxylic acid sodium salt]	–
–	–	2 µg/mL	Cc1ccc(S(=O)(=O)OC2=C(C(=O)O)N3C(=O)[C@@H]4[C@H]3[C@H](C2)CN4C(=O)Nc2ccc(O)cc2)cc1 [9(i), (1aS,3aR,6bR)-2-(4-Hydroxy-phenylcarbamoyl)-5-(4-methyl-phenylsulphonyloxy)-1-oxo-1a,2,3,3a,4,6b-hexahydro-1H-2,6a-diazacyclobut[cd]indene-6-carboxylic acid sodium salt]	MIC E. coli 1346 [2]: 16 µg/mL
8 µg/mL	4 µg/mL	–	CNC(=O)Cn1nnnc1SCC1=C(C(=O)O)N2C(=O)[C@@H]3[C@H]2[C@@H](CN3C(C)=O)O1 [32(f), (1aS,3aR, 6bS)-2-Acetyl-5-(1-methyl-carbamoylmethyl-1H-tetrazol-5-ylsulphanylmethyl)-1-oxo-1,1a,2,3,3a,6b-hexahydro-4-oxa-2,6a-diazacyclobut[cd]indene-6-carboxylic acid sodium salt]	–
–	–	–	CS(=O)(=O)OC1=C(C(=O)[O-])N2C(=O)[C@@H]3[C@H]2[C@H](C1)CN3C(=O)C[n+]1cccc(C(N)=O)c1 [11(a), (1 aS,3aR,6bR)-2-(3-Carbamoyl-pyridin-1-ylioacetyl)-5-methylsulphonyloxy-1-oxo-1a,2,3,3a,4,6b-hexahydro-1H-2,6a-diazacyclobut[cd]indene-6-carboxylate]	MIC E. coli 1346 [2]: 32 µg/mL (≈ 71 µM)
–	–	–	Cc1nnc(SC2=C(C(=O)O)N3C(=O)[C@@H]4[C@H]3[C@H](C2)CN4C(=O)Nc2ccc(O)cc2)s1 [3(j), (1aS,3aR,6bR)-2-(4-Hydroxyphenylcarbamoyl)-5-(5-methyl-1,3,4-thiadiazol-2-ylsulphanyl)-1-oxo-1a,2,3,3a,4,6b-hexahydro-1H-2,6a-diazacyclobut[cd]indene-6-carboxylic acid sodium salt]	MIC E. coli 1346 [2]: 32 µg/mL
–	–	–	CC(=O)N1C[C@H]2CC(CSc3nnnn3C)=C(C(=O)O)N3C(=O)[C@@H]1[C@@H]23 [Example 19(a), (1aS,3aR,6bR)-2-Acetyl-5-(1-methyl-1H-tetrazol-5-ylsulphahylmethyl)-1-oxo-1a,2,3,3a,4,6b-hexahydro-1H-2,6a-diazacyclobut[cd]indene-6-carboxylic acid sodium salt]	MIC E. coli 1346 [2]: 0.5 µg/mL
–	–	0.06 µg/mL	Cn1nnnc1SC1=C(C(=O)O)N2C(=O)[C@@H]3[C@H]2[C@H](C1)CN3C(=O)NC1CCSC1=O (mixture of isomers) [3(f), (1aS,3aR,6bR)-5-(1-Methyl-1H-tetrazol-5-ylsulphanyl)-1-oxo-2-[(R)- and [(S)-2-oxo-tetrahydro-thien-3-ylcarbamoyl]-1a,2,3,3a,4,6b-hexahydro-1H-2,6a-diazacyclobut[cd]indene-6-carboxylic acid sodium salt]	–
–	–	0.5 µg/mL	Cc1nnc(SC2=C(C(=O)O)N3C(=O)[C@@H]4[C@H]3[C@H](C2)CN4C(=O)Nc2ccc(C(N)=O)cc2)s1 [3(k), (1aS,3aR,6bR)-2-(4-Carbamoyl-phenylcarbamoyl)-5-(5-methyl-1,3,4-thiadiazol-2-ylsulphanyl)-1-oxo-1a,2,3,3a,4,6b-hexahydro-1H-2,6a-diazacyclobut[cd]indene-6-carboxylic acid sodium salt]	–
–	–	0.06 µg/mL	Cn1nnnc1SC1=C(C(=O)O)N2C(=O)[C@@H]3[C@H]2[C@H](C1)CN3C(=O)NC1CCS(=O)(=O)C1 (mixture of isomers) [3(i), (1aS,3aR,6bR)-2-[(R)- and [(S)-1,1-dioxo-tetrahydrothien-3-ylcarbamoyl)-5-(1-methyl-1H-tetrazol-5-ylsulphanyl)-1-oxo-1a,2,3,3a,4,6b-hexahydro-1H-2,6a-diazacyclobut[cd]indene-6-carboxylic acid sodium salt]	–
0.5 µg/mL	–	–	Cn1nnnc1SCC1=C(C(=O)O)N2C(=O)[C@@H]3[C@H]2[C@H](C1)CN3C(=O)NCc1cccs1 [18(g), (1aS,3aR,6bR)-1-Oxo-5-(1-methyl-1H-tetrazol-5-yl-sulphanylmethyl)-2-thiophen-2-ylmethylcarbamoyl-1a,2,3,3a,4,6b-hexahydro-1H-2,6a-diazacyclobut[cd]indene-6-carboxylic acid sodium salt]	–
–	–	0.25 µg/mL	NC(=O)c1ccc(NC(=O)N2C[C@H]3CC(C[n+]4ccccc4)=C(C(=O)[O-])N4C(=O)[C@@H]2[C@@H]34)cc1 [23(c), (1aS,3aR,6bR)-2-(4-Carbamoyl-phenylcarbamoyl)-1-oxo-5-(pyridin-1-yliomethyl)-1a,2,3,3a,4,6b-hexahydro-1H-2,6a-diazacyclobut[cd]indene-6-carboxylate]	–
–	–	0.25 µg/mL	COC(=O)CC1=C(C(=O)O)N2C(=O)[C@@H]3[C@H]2[C@H](C1)CN3C(=O)Nc1ccc(O)cc1 [13(b), (1aS,3aR,6bR)-2-(4-Hydroxy-phenylcarbamoyl)-5-methoxycarbonylmethyl-1-oxo-1a,2,3,3a,4,6b-hexahydro-1H-2,6a-diazacyclobut[cd]indene-6-carboxylic add sodium salt]	–
–	–	–	Cn1nnnc1SC1=C(C(=O)O)N2C(=O)[C@H]3NC[C@@H](C1)[C@H]32 [Example 2(a), (1aS,3aR,6bR)-5-(1-Methyl-1H-tetrazol-5-ylsulphanyl)-1-oxo-1a,2,3,3a,4,6b-hexahydro-1H-2,6a-diazacyclobut[cd]indene-6-carboxylic acid trifluoroacetate]	MIC E. coli 1346 [2]: 4 µg/mL
–	–	–	Cn1nnnc1SCC1=C(C(=O)O)N2C(=O)[C@H]3NC[C@@H](C1)[C@H]32 [Example 15, (1aS,3aR,6bR)-5-(1-Methyl-1H-tetrazol-5-ylsulphanylmethyl)-1-oxo-1a,2,3,3a,4,6b-hexahydro-1H-2,6a-diazacyclobut[cd]indene-6-carboxylic acid trifluoroacetate]	MIC E. coli 1346 [2]: 2 µg/mL

Compound	MIC C. freundii 1982 (D) [1]	MIC E. coli 1346 (E) [2]	MIC C. freundii 1982 [1]	also measured
CC(C)(C)OC(=O)N1C[C@H]2CC(OS(C)(=O)=O)=C(C(=O)O)N3C(=O)[C@@H]1[C@@H]23 [10(a), (1aS,3aR,6bR)-2-t-Butoxycarbonyl-5-methylsulphonyloxy-1-oxo-1a,2,3,3a,4,6b-hexahydro-1H-2,6a-diazacyclobut[cd]-indene-6-carboxylic acid sodium salt]	–	–	1 µg/mL	–
O=C([O-])C1=C(C[n+]2ccccc2)C[C@@H]2CN(C(=O)NCc3cc(O)no3)[C@@H]3C(=O)N1[C@H]23 [23(b), (1aS,3aR,6bR)-2-(3-Hydroxy-isoxazol-5-ylmethylcarbamoyl)-1-oxo-5-(pyridin-1-yliomethyl)-1a,2,3,3a,4,6b-hexahydro-1H-2,6a-diazacyclobut[cd]indene-6-carboxylate]	–	–	1 µg/mL	–
Cc1ccc(S(=O)(=O)OC2=C(C(=O)O)N3C(=O)[C@@H]4[C@H]3[C@H](C2)CN4C(=O)OC(C)(C)C)cc1 [10(d), (1aS,3aR,6bR)-2-t-Butoxycarbonyl-5-(4-methyl-phenylsulphonyloxy)-1-oxo-1a,2,3,3a,4,6b-hexahydro-1H-2,6a-diazacyclobut[cd]indene-6-carboxylic acid sodium salt]	–	–	8 µg/mL	–
